Tested on: N. gonorrhoeae clinical isolates
Experiment: MIC, agar dilution (CLSI)
Type: cell-based, Neisseria gonorrhoeae

CN(C)[C@@H]1C(O)=C(C(N)=O)C(=O)[C@@]2(O)C(O)=C3C(=O)c4c(O)cccc4[C@@](C)(O)[C@H]3C[C@@H]12 [Tet, tetracycline]
16 µg/mL: MIC (Neisseria gonorrhoeae, strain CDC59 (GCREF2013 044))
0.25 µg/mL: MIC (Neisseria gonorrhoeae, strain CDC86 (GCREF2013 035))
0.063 µg/mL: MIC (Neisseria gonorrhoeae, strain CDC63 (GCREF2013 008))
0.063 to 16 µg/mL: MIC range (96 clinical isolates)
2 µg/mL: MIC (Neisseria gonorrhoeae, strain CDC1 (GCREF2012 016)) | MIC (Neisseria gonorrhoeae, strain CDC31 (GCREF2012 028)) | MIC (Neisseria gonorrhoeae, strain CDC35 (GCREF2012 032)) | MIC (Neisseria gonorrhoeae, strain CDC42 (GCREF2012 039)) | MIC (Neisseria gonorrhoeae, strain CDC43 (GCREF2012 040)) | MIC (Neisseria gonorrhoeae, strain CDC45 (GCREF2012 042))
1 µg/mL: MIC50 (Neisseria gonorrhoeae) | MIC90 (Neisseria gonorrhoeae) | MIC (Neisseria gonorrhoeae, strain CDC2 (GCREF2012 045)) | MIC (Neisseria gonorrhoeae, strain CDC3 (GCREF2013 013)) | MIC (Neisseria gonorrhoeae, strain CDC5 (GCREF2012 001)) | MIC (Neisseria gonorrhoeae, strain CDC6 (GCREF2012 002)) | MIC (Neisseria gonorrhoeae, strain CDC8 (GCREF2012 004)) | MIC (Neisseria gonorrhoeae, strain CDC9 (GCREF2012 005)) | MIC (Neisseria gonorrhoeae, strain CDC10 (GCREF2012 006)) | MIC (Neisseria gonorrhoeae, strain CDC11 (GCREF2012 007)) | MIC (Neisseria gonorrhoeae, strain CDC12 (GCREF2012 008)) | MIC (Neisseria gonorrhoeae, strain CDC13 (GCREF2012 009)) | MIC (Neisseria gonorrhoeae, strain CDC14 (GCREF2012 010)) | MIC (Neisseria gonorrhoeae, strain CDC16 (GCREF2012 012)) | MIC (Neisseria gonorrhoeae, strain CDC18 (GCREF2012 014)) | MIC (Neisseria gonorrhoeae, strain CDC20 (GCREF2012 017)) | MIC (Neisseria gonorrhoeae, strain CDC21 (GCREF2012 018)) | MIC (Neisseria gonorrhoeae, strain CDC22 (GCREF2012 019)) | MIC (Neisseria gonorrhoeae, strain CDC23 (GCREF2012 020)) | MIC (Neisseria gonorrhoeae, strain CDC24 (GCREF2012 021)) | MIC (Neisseria gonorrhoeae, strain CDC25 (GCREF2012 022)) | MIC (Neisseria gonorrhoeae, strain CDC27 (GCREF2012 024)) | MIC (Neisseria gonorrhoeae, strain CDC28 (GCREF2012 025)) | MIC (Neisseria gonorrhoeae, strain CDC29 (GCREF2012 026)) | MIC (Neisseria gonorrhoeae, strain CDC30 (GCREF2012 027)) | MIC (Neisseria gonorrhoeae, strain CDC34 (GCREF2012 031)) | MIC (Neisseria gonorrhoeae, strain CDC36 (GCREF2012 033)) | MIC (Neisseria gonorrhoeae, strain CDC37 (GCREF2012 034)) | MIC (Neisseria gonorrhoeae, strain CDC38 (GCREF2012 035)) | MIC (Neisseria gonorrhoeae, strain CDC39 (GCREF2012 036)) | MIC (Neisseria gonorrhoeae, strain CDC40 (GCREF2012 037)) | MIC (Neisseria gonorrhoeae, strain CDC41 (GCREF2012 038)) | MIC (Neisseria gonorrhoeae, strain CDC46 (GCREF2012 043)) | MIC (Neisseria gonorrhoeae, strain CDC47 (GCREF2012 044)) | MIC (Neisseria gonorrhoeae, strain CDC48 (GCREF2012 046)) | MIC (Neisseria gonorrhoeae, strain CDC49 (GCREF2012 047)) | MIC (Neisseria gonorrhoeae, strain CDC50 (GCREF2012 048)) | MIC (Neisseria gonorrhoeae, strain CDC51 (GCREF2012 049)) | MIC (Neisseria gonorrhoeae, strain CDC52 (GCREF2012 050)) | MIC (Neisseria gonorrhoeae, strain CDC53 (GCREF2012 051)) | MIC (Neisseria gonorrhoeae, strain CDC54 (GCREF2012 052)) | MIC (Neisseria gonorrhoeae, strain CDC55 (GCREF2013 001)) | MIC (Neisseria gonorrhoeae, strain CDC56 (GCREF2013 002)) | MIC (Neisseria gonorrhoeae, strain CDC58 (GCREF2013 004)) | MIC (Neisseria gonorrhoeae, strain CDC60 (GCREF2013 005)) | MIC (Neisseria gonorrhoeae, strain CDC61 (GCREF2013 006)) | MIC (Neisseria gonorrhoeae, strain CDC64 (GCREF2013 009)) | MIC (Neisseria gonorrhoeae, strain CDC67 (GCREF2013 014)) | MIC (Neisseria gonorrhoeae, strain CDC68 (GCREF2013 016)) | MIC (Neisseria gonorrhoeae, strain CDC69 (GCREF2013 017)) | MIC (Neisseria gonorrhoeae, strain CDC70 (GCREF2013 018)) | MIC (Neisseria gonorrhoeae, strain CDC71 (GCREF2013 019)) | MIC (Neisseria gonorrhoeae, strain CDC72 (GCREF2013 020)) | MIC (Neisseria gonorrhoeae, strain CDC73 (GCREF2013 021)) | MIC (Neisseria gonorrhoeae, strain CDC74 (GCREF2013 022)) | MIC (Neisseria gonorrhoeae, strain CDC75 (GCREF2013 023)) | MIC (Neisseria gonorrhoeae, strain CDC76 (GCREF2013 024)) | MIC (Neisseria gonorrhoeae, strain CDC77 (GCREF2013 025)) | MIC (Neisseria gonorrhoeae, strain CDC78 (GCREF2013 026)) | MIC (Neisseria gonorrhoeae, strain CDC79 (GCREF2013 027)) | MIC (Neisseria gonorrhoeae, strain CDC80 (GCREF2013 028)) | MIC (Neisseria gonorrhoeae, strain CDC81 (GCREF2013 029)) | MIC (Neisseria gonorrhoeae, strain CDC87 (GCREF2013 036)) | MIC (Neisseria gonorrhoeae, strain CDC89 (GCREF2013 038)) | MIC (Neisseria gonorrhoeae, strain CDC90 (GCREF2013 039)) | MIC (Neisseria gonorrhoeae, strain CDC91 (GCREF2013 040)) | MIC (Neisseria gonorrhoeae, strain CDC92 (GCREF2013 041)) | MIC (Neisseria gonorrhoeae, strain CDC93 (GCREF2013 042)) | MIC (Neisseria gonorrhoeae, strain CDC95 (GCREF2013 045)) | MIC (Neisseria gonorrhoeae, strain CDC97 (GCREF2013 047)) | MIC (Neisseria gonorrhoeae, strain CDC100 (GCREF2013 015))
0.5 µg/mL: MIC (Neisseria gonorrhoeae, strain CDC4 (GCREF2013 030)) | MIC (Neisseria gonorrhoeae, strain CDC15 (GCREF2012 011)) | MIC (Neisseria gonorrhoeae, strain CDC19 (GCREF2012 015)) | MIC (Neisseria gonorrhoeae, strain CDC26 (GCREF2012 023)) | MIC (Neisseria gonorrhoeae, strain CDC32 (GCREF2012 029)) | MIC (Neisseria gonorrhoeae, strain CDC33 (GCREF2012 030)) | MIC (Neisseria gonorrhoeae, strain CDC57 (GCREF2013 003)) | MIC (Neisseria gonorrhoeae, strain CDC62 (GCREF2013 007)) | MIC (Neisseria gonorrhoeae, strain CDC65 (GCREF2013 010)) | MIC (Neisseria gonorrhoeae, strain CDC66 (GCREF2013 011)) | MIC (Neisseria gonorrhoeae, strain CDC82 (GCREF2013 031)) | MIC (Neisseria gonorrhoeae, strain CDC83 (GCREF2013 032)) | MIC (Neisseria gonorrhoeae, strain CDC84 (GCREF2013 033)) | MIC (Neisseria gonorrhoeae, strain CDC88 (GCREF2013 037)) | MIC (Neisseria gonorrhoeae, strain CDC94 (GCREF2013 043)) | MIC (Neisseria gonorrhoeae, strain CDC96 (GCREF2013 046)) | MIC (Neisseria gonorrhoeae, strain CDC98 (GCREF2013 048)) | MIC (Neisseria gonorrhoeae, strain CDC99 (GCREF2013 012))
